For eight compounds, IC50, Dmax and DC50 results are on record in patent US12528814B2, “Bifunctional degraders of interleukin-1 receptor-associated kinases and therapeutic use thereof” (NURIX THERAPEUTICS, INC., priority 2020, dated 2026).

The target in assay [1] is T1, IRAK4 (Homo sapiens (Human), UniProt Q9NWZ3). Briefly: IRAK4 Biochemical HTRF Kinase Assay. The following applies: read-out: IRAK4 HTRF biochemical: IC50. In a few lines: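 IC50 values derive from non-linear regression of sixteen concentrations in duplicate. Kinase reaction ran 90 min at ambient temperature after adding 5 μM STK-S1 substrate, 10 mM ATP and 10 mM MgCl2 (reaction-solution levels, pre-dilution to 10 μl); phospho-peptide detected by HTRF after 60 min.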
Target sequence in this assay (Q9NWZ3 whole entry, species assumed): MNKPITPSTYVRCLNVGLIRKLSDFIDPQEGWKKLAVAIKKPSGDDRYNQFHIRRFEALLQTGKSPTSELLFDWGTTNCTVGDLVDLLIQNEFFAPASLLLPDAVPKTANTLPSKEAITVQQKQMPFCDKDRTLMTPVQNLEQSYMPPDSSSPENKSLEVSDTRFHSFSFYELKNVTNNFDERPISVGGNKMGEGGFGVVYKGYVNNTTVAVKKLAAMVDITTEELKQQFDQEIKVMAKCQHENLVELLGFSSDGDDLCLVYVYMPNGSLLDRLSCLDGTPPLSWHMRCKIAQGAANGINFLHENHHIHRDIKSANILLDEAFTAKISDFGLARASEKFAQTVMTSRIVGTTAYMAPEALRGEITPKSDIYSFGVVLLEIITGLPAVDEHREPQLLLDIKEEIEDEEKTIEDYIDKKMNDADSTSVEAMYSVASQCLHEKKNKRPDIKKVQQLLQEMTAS

Assay [2] has as its target T1, IRAK4. Nature of the assay: IRAK4 Degradation HiBiT Assay. The following applies: HiBiT-tagged Jurkat cells, 4 hrs; for Dmax: Jurkat; for DC50: read-out: Cellular IRAK4 HiBiT: DC50. (The HiBiT peptide binds its large partner to form an active luciferase.)
Target sequence in this assay (Q9NWZ3 whole entry): as the sequence (Q9NWZ3 whole entry, species assumed) above
Setting [3] is: read-out: Cellular IRAK4 HiBiT: Dmax, Table 4.
The mark [4] stands for this setting: read-out: Cellular IRAK4 HiBiT: Dmax, Table 5, multiple runs.

Like-named read-outs stand apart in the source and are kept apart here. Bounds are passed on as bounds.

As a reminder, the IC50 is the concentration at which inhibition is half-maximal. In general, Dmax refers to the greatest extent of degradation seen. In general, DC50 refers to the concentration at which degradation of the target reaches its halfway point. On to `Cc1ncsc1-c1ccc([C@H](C)NC(=O)[C@@H]2C[C@@H](O)CN2C(=O)[C@@H](NC(=O)CCOCCOCCOCCOCCOCCC(=O)N2CCN(c3nnc(-c4cnc(-c5ccc6cc(C#N)cnn56)cc4NC(C)C)s3)CC2)C(C)(C)C)cc1` [Example 41, (2S,4R)-1-((S)-2-(tert-butyl)-22-(4-(5-(6-(3-cyanopyrrolo[1,2-b]pyridazin-7-yl)-4-(isopropylamino)pyridin-3-yl)-1,3,4-thiadiazol-2-yl)piperazin-1-yl)-4,22-dioxo-7,10,13,16,19-pentaoxa-3-azadocosanoyl)-4-hydroxy-N—((S)-1-(4-(4-methylthiazol-5-yl)phenyl)ethyl)pyrrolidine-2-carboxamide], for which the IC50 in assay [1] (Table 4) is 0.0013 µM; in assay [1] (Table 5, multiple runs), 0.0013 µM. The Dmax worked out at 44% in assay [2] (setting [3]) and 47% in assay [2] (setting [4]). The DC50 in assay [2] (Table 4) came to 0.872 µM; in assay [2] (Table 5, multiple runs) it was 1.33 µM.

As to `Cc1ncsc1-c1ccc(CNC(=O)[C@@H]2C[C@@H](O)CN2C(=O)[C@@H](NC(=O)C2(F)CC2)C(C)(C)C)c(OCCCCCC(=O)N2CCN(c3nnc(-c4cnc(-c5ccc6cc(C#N)cnn56)cc4NC(C)C)s3)CC2)c1` [Example 42, (2S,4R)—N-(2-((6-(4-(5-(6-(3-cyanopyrrolo[1,2-b]pyridazin-7-yl)-4-(isopropylamino)pyridin-3-yl)-1,3,4-thiadiazol-2-yl)piperazin-1-yl)-6-oxohexyl)oxy)-4-(4-methylthiazol-5-yl)benzyl)-1-((S)-2-(1-fluorocyclopropane-1-carboxamido)-3,3-dimethylbutanoyl)-4-hydroxypyrrolidine-2-carboxamide], the IC50 is 0.0173 µM in assay [1] (Table 4) and 0.0173 µM in assay [1] (Table 5, multiple runs). For the same compound, the Dmax in assay [2] (setting [3]) and in assay [2] (setting [4]) was 104% each time. The 50% degradation concentration (DC50) in assay [2] (Table 4) came to 0.336 µM; in assay [2] (Table 5, multiple runs), 0.315 µM.

For `Cc1ncsc1-c1ccc(CNC(=O)[C@@H]2C[C@@H](O)CN2C(=O)[C@@H](NC(=O)C2(F)CC2)C(C)(C)C)c(OCCCCCCCC(=O)N2CCN(c3nnc(-c4cnc(-c5ccc6cc(C#N)cnn56)cc4NC(C)C)s3)CC2)c1` [Example 43, (2S,4R)—N-(2-((8-(4-(5-(6-(3-cyanopyrrolo[1,2-b]pyridazin-7-yl)-4-(isopropylamino)pyridin-3-yl)-1,3,4-thiadiazol-2-yl)piperazin-1-yl)-8-oxooctyl)oxy)-4-(4-methylthiazol-5-yl)benzyl)-1-((S)-2-(1-fluorocyclopropane-1-carboxamido)-3,3-dimethylbutanoyl)-4-hydroxypyrrolidine-2-carboxamide], the IC50 was 0.0241 µM in assay [1] (Table 4) and 0.024 µM in assay [1] (Table 5, multiple runs). Further, the results for the Dmax in assay [2] (setting [3]) and in assay [2] (setting [4]) were 78% and 67%, respectively. In addition, the DC50 in assay [2] (Table 4) was 1.17 µM; in assay [2] (Table 5, multiple runs), 1.09 µM.

In the case of `Cc1ncsc1-c1ccc(CNC(=O)[C@@H]2C[C@@H](O)CN2C(=O)[C@@H](NC(=O)C2(F)CC2)C(C)(C)C)c(OCCCCCCCCCC(=O)N2CCN(c3nnc(-c4cnc(-c5ccc6cc(C#N)cnn56)cc4NC(C)C)s3)CC2)c1` [Example 44, (2S,4R)—N-(2-((10-(4-(5-(6-(3-cyanopyrrolo[1,2-b]pyridazin-7-yl)-4-(isopropylamino)pyridin-3-yl)-1,3,4-thiadiazol-2-yl)piperazin-1-yl)-10-oxodecyl)oxy)-4-(4-methylthiazol-5-yl)benzyl)-1-((S)-2-(1-fluorocyclopropane-1-carboxamido)-3,3-dimethylbutanoyl)-4-hydroxypyrrolidine-2-carboxamide], the IC50 in assay [1] (Table 4) was determined as 0.702 µM; in assay [1] (Table 5, multiple runs) it was 0.702 µM. Further, the Dmax in assay [2] (setting [3]) came to 33%. The DC50 is > 10 µM in assay [2] (Table 4) and > 9.98 µM in assay [2] (Table 5, multiple runs).

With `Cc1ncsc1-c1ccc(CNC(=O)[C@@H]2C[C@@H](O)CN2C(=O)C(NC(=O)[C@H]2CC[C@H](C(=O)N3CCN(c4nnc(-c5cnc(-c6ccc7cc(C#N)cnn67)cc5NC(C)C)s4)CC3)CC2)C(C)(C)C)cc1` (stereo partly drawn) [Example 45, (2S,4R)-1-((S)-2-((1r,4S)-4-(4-(5-(6-(3-cyanopyrrolo[1,2-b]pyridazin-7-yl)-4-(isopropylamino)pyridin-3-yl)-1,3,4-thiadiazol-2-yl)piperazine-1-carbonyl)cyclohexane-1-carboxamido)-3,3-dimethylbutanoyl)-4-hydroxy-N-(4-(4-methylthiazol-5-yl)benzyl)pyrrolidine-2-carboxamide], the IC50 in assay [1] (Table 4) turned out to be 0.019 µM; in assay [1] (Table 5, multiple runs), 0.019 µM. The values for the Dmax in assay [2] (setting [3]) and in assay [2] (setting [4]) were 67% and 83%, respectively. The DC50 in assay [2] (Table 4) was determined as 4.33 µM; in assay [2] (Table 5, multiple runs) it was 2.49 µM.

With `Cc1ncsc1-c1ccc(CNC(=O)[C@@H]2C[C@@H](O)CN2C(=O)C(NC(=O)[C@H]2CC[C@H](CN3CCN(c4nnc(-c5cnc(-c6ccc7cc(C#N)cnn67)cc5NC(C)C)s4)CC3)CC2)C(C)(C)C)cc1` (stereo partly drawn) [Example 46, (2S,4R)-1-((S)-2-((1r,4S)-4-((4-(5-(6-(3-cyanopyrrolo[1,2-b]pyridazin-7-yl)-4-(isopropylamino)pyridin-3-yl)-1,3,4-thiadiazol-2-yl)piperazin-1-yl)methyl)cyclohexane-1-carboxamido)-3,3-dimethylbutanoyl)-4-hydroxy-N-(4-(4-methylthiazol-5-yl)benzyl)pyrrolidine-2-carboxamide], the IC50 in assay [1] (Table 4) was found to be 0.0154 µM; in assay [1] (Table 5, multiple runs), 0.0154 µM. For the same compound, the Dmax in assay [2] (setting [3]) came out at 78%; in assay [2] (setting [4]), 73%. In addition, the DC50 in assay [2] (Table 4) came to 1.57 µM; in assay [2] (Table 5, multiple runs) it was 1.24 µM.

Turning to `Cc1ncsc1-c1ccc(CNC(=O)[C@@H]2C[C@@H](O)CN2C(=O)[C@@H](NC(=O)C2(F)CC2)C(C)(C)C)c(OCCOCCOCCOCCOCCOCCC(=O)N2CCN(c3nnc(-c4cnc(-c5ccc6cc(C#N)cnn56)cc4NC(C)C)s3)CC2)c1` [Example 48, (2S,4R)—N-(2-((18-(4-(5-(6-(3-cyanopyrrolo[1,2-b]pyridazin-7-yl)-4-(isopropylamino)pyridin-3-yl)-1,3,4-thiadiazol-2-yl)piperazin-1-yl)-18-oxo-3,6,9,12,15-pentaoxaoctadecyl)oxy)-4-(4-methylthiazol-5-yl)benzyl)-1-((S)-2-(1-fluorocyclopropane-1-carboxamido)-3,3-dimethylbutanoyl)-4-hydroxypyrrolidine-2-carboxamide], the IC50 in assay [1] (Table 4) came out at 0.004 µM; in assay [1] (Table 5, multiple runs), 0.004 µM. The Dmax in assay [2] (setting [3]) and in assay [2] (setting [4]) was 119% in each case. Also, the DC50 in assay [2] (Table 4) came to 0.691 µM; in assay [2] (Table 5, multiple runs), 0.691 µM.

For the compound `Cc1ncsc1-c1ccc(CNC(=O)[C@@H]2C[C@@H](O)CN2C(=O)[C@@H](NC(=O)C2(F)CC2)C(C)(C)C)c(OCCOCCOCCOCCC(=O)N2CCN(c3nnc(-c4cnc(-c5ccc6cc(C#N)cnn56)cc4NC(C)C)s3)CC2)c1` [Example 49, (2S,4R)—N-(2-(2-(2-(2-(3-(4-(5-(6-(3-cyanopyrrolo[1,2-b]pyridazin-7-yl)-4-(isopropylamino)pyridin-3-yl)-1,3,4-thiadiazol-2-yl)piperazin-1-yl)-3-oxopropoxy)ethoxy)ethoxy)ethoxy)-4-(4-methylthiazol-5-yl)benzyl)-1-((S)-2-(1-fluorocyclopropane-1-carboxamido)-3,3-dimethylbutanoyl)-4-hydroxypyrrolidine-2-carboxamide], the IC50 in assay [1] (Table 4) stood at 0.0046 µM; in assay [1] (Table 5, multiple runs) it was 0.0046 µM. Further, the Dmax in assay [2] (setting [3]) and in assay [2] (setting [4]) was 111% each time. For the same compound, the DC50 in assay [2] (Table 4) was 0.231 µM; in assay [2] (Table 5, multiple runs), 0.231 µM.
